Measured values as given in ChEMBL document CHEMBL5653615 (J Biol Chem, 2013).

Assays:
[1] = molecular target: CDK4/Cyclin D3 (Homo sapiens) (UniProt P11802+P30281); assay: Inhibition of human CDK4/cyclin D3 at 1.82 nM by HotSpot assay relative to control; assay type: protein-complex assay
[2] = molecular target: Protein kinase C beta type (Homo sapiens) (UniProt P05771); assay: Inhibition of human PKCb1 at 1.82 nM by HotSpot assay relative to control
[3] = molecular target: T1, Serine/threonine-protein kinase Sgk1 (Homo sapiens) (UniProt O00141); assay: Inhibition of human SGK1 at 1.82 nM by HotSpot assay relative to control
T1 sequence (whole entry): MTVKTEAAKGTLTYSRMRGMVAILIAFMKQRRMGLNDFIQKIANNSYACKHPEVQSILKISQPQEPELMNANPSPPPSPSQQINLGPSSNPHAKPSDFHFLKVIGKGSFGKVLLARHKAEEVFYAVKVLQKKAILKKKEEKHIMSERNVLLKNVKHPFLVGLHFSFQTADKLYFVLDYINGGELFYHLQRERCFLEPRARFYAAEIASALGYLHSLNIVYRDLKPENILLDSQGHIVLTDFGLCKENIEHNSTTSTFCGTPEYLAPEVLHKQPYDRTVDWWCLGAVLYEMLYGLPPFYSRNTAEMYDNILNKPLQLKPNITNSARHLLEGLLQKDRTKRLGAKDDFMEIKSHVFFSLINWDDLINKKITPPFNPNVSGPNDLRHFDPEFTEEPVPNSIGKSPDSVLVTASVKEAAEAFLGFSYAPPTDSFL

[4] = molecular target: T2, Dual serine/threonine and tyrosine protein kinase (Homo sapiens) (UniProt Q6XUX3); assay: Inhibition of human RIPK5 at 1.82 nM by HotSpot assay relative to control
T2 sequence (whole entry): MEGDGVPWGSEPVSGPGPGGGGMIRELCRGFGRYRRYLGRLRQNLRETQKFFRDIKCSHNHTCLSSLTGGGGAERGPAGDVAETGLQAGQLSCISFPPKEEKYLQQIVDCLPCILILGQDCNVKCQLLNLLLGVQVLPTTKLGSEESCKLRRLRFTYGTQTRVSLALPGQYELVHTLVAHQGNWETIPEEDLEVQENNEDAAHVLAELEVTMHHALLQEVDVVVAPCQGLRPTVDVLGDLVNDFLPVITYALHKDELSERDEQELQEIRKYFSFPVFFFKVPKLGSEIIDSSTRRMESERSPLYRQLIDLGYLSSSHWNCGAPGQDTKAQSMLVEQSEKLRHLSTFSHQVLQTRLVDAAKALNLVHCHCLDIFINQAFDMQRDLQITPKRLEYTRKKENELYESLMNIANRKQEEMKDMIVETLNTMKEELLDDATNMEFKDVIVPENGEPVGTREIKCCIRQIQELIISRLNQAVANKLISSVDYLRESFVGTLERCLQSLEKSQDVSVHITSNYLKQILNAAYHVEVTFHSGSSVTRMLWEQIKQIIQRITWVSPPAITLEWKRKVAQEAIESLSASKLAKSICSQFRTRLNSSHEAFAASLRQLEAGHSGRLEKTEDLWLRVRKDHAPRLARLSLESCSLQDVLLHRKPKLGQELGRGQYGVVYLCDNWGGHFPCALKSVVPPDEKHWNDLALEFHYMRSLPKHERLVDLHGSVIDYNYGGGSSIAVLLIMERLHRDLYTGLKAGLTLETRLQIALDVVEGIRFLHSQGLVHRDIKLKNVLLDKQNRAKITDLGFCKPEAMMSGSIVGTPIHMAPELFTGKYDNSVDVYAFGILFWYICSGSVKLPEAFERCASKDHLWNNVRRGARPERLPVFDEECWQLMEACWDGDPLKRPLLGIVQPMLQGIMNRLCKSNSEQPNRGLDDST

[5] = molecular target: Calcium/calmodulin-dependent protein kinase type 1G (Homo sapiens) (UniProt Q96NX5); assay: Inhibition of human CAMK1g at 1.82 nM by HotSpot assay relative to control
Sequence of Calcium/calmodulin-dependent protein kinase type 1G (Homo sapiens) (Q96NX5 whole entry): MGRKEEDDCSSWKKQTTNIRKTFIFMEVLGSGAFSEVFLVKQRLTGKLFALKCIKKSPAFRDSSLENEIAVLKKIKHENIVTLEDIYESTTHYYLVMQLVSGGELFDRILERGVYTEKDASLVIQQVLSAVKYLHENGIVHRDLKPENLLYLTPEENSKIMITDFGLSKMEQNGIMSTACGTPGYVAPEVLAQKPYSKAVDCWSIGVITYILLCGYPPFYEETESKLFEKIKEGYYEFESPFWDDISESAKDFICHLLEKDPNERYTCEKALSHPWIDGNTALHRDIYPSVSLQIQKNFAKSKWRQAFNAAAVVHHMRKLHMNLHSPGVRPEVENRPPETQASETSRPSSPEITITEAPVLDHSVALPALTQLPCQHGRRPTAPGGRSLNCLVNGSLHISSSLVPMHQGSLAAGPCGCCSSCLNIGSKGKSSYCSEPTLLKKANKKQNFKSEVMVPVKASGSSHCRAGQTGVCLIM

[6] = molecular target: SRSF protein kinase 1 (Homo sapiens) (UniProt Q96SB4); assay: Inhibition of human SRPK1 at 18.6 nM by HotSpot assay relative to control
Sequence of SRSF protein kinase 1 (Homo sapiens) (Q96SB4 whole entry): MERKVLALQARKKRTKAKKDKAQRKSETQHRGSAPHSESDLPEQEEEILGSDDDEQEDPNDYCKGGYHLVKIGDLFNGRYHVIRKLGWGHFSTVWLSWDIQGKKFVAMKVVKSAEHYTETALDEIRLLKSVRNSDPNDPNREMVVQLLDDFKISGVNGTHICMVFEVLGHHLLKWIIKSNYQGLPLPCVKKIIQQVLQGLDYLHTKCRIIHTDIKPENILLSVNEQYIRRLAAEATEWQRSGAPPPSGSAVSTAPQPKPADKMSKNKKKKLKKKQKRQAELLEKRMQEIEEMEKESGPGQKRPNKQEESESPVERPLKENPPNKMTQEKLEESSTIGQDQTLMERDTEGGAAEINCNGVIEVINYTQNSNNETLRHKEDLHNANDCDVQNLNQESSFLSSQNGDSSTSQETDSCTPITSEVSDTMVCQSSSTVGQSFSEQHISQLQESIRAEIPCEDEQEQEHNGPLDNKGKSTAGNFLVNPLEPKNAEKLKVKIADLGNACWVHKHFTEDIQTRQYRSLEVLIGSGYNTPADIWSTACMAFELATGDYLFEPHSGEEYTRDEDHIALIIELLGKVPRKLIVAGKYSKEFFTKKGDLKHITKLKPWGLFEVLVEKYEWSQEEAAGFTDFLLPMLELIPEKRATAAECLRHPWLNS

[7] = molecular target: Fibroblast growth factor receptor 2 (Homo sapiens) (UniProt P21802); assay: Inhibition of human FGFR2 at 18.6 nM by HotSpot assay relative to control
Sequence of Fibroblast growth factor receptor 2 (Homo sapiens) (P21802 22-821 limits assumed): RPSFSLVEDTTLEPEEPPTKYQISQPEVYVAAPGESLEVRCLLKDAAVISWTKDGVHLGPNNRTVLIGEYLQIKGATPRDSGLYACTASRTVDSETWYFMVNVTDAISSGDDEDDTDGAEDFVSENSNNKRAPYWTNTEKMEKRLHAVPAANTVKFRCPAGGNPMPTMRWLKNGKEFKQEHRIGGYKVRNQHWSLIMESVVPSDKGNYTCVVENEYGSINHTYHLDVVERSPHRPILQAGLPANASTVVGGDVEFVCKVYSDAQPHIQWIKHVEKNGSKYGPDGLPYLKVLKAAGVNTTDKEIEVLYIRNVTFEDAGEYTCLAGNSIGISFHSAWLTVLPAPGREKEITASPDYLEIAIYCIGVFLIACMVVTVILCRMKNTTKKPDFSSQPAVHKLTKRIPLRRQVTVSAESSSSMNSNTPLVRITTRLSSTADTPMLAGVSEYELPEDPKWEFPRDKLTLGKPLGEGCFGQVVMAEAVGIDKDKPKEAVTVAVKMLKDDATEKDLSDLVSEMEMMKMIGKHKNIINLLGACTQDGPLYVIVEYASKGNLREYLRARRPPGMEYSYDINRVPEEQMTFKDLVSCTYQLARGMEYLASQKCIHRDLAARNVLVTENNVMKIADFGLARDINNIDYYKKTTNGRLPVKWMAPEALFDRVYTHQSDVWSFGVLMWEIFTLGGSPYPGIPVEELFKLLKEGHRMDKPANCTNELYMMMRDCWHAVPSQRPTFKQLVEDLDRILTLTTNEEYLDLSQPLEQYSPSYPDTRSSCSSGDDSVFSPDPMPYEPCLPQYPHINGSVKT

[8] = molecular target: Serine/threonine-protein kinase PLK3 (Homo sapiens) (UniProt Q9H4B4); assay: Inhibition of human PLK3 at 18.6 nM by HotSpot assay relative to control
Sequence of Serine/threonine-protein kinase PLK3 (Homo sapiens) (Q9H4B4 whole entry, looked up): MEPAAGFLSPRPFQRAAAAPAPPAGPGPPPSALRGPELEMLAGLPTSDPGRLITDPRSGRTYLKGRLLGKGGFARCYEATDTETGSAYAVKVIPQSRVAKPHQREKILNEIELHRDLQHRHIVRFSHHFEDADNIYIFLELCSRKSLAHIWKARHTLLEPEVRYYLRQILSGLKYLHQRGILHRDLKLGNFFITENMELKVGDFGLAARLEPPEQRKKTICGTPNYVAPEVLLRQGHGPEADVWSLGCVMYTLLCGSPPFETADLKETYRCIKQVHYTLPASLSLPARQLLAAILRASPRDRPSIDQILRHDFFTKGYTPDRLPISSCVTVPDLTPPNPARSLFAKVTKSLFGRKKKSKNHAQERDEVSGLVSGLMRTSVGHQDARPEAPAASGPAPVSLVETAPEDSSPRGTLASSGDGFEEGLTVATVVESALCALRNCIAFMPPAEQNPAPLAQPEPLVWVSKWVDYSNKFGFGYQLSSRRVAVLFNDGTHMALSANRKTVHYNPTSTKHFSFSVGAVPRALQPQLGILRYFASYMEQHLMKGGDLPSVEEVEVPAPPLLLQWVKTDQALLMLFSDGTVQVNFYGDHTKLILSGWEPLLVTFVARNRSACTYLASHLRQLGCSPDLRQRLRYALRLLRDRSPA

[9] = molecular target: Mitogen-activated protein kinase kinase kinase 7 (Homo sapiens) (UniProt O43318); assay: Inhibition of human TAK1 at 18.6 nM by HotSpot assay relative to control
Sequence of Mitogen-activated protein kinase kinase kinase 7 (Homo sapiens) (O43318 whole entry, looked up): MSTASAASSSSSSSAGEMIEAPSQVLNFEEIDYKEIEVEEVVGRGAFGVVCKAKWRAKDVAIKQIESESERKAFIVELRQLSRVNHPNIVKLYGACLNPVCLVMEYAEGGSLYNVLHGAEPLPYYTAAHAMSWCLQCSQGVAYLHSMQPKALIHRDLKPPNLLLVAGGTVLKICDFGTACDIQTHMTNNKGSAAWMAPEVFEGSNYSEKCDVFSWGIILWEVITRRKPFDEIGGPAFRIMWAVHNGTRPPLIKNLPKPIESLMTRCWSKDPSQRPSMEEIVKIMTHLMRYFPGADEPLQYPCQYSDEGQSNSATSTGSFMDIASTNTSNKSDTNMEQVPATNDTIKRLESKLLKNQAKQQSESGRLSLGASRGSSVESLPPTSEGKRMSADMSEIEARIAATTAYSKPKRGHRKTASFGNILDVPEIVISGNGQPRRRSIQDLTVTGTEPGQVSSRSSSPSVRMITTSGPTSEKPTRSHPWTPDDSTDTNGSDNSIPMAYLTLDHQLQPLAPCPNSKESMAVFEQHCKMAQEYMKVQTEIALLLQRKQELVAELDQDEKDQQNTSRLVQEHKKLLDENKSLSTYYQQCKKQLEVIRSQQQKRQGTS

[10] = molecular target: Dual specificity mitogen-activated protein kinase kinase 2 (Homo sapiens) (UniProt P36507); assay: Inhibition of human MEK2 at 18.6 nM by HotSpot assay relative to control
Sequence of Dual specificity mitogen-activated protein kinase kinase 2 (Homo sapiens) (P36507 whole entry): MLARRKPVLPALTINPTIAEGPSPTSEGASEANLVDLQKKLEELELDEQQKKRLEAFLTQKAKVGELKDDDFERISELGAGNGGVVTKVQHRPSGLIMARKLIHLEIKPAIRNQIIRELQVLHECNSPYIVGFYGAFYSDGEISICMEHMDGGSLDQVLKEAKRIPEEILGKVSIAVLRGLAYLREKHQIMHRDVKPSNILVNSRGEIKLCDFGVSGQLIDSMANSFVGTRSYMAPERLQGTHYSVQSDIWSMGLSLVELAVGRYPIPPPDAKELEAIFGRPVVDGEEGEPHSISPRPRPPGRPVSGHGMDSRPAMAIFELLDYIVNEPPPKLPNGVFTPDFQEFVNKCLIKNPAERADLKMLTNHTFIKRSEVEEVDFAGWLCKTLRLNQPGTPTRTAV

[11] = molecular target: Serine/threonine-protein kinase pim-2 (Homo sapiens) (UniProt Q9P1W9); assay: Inhibition of human PIM2 at 18.6 nM by HotSpot assay relative to control
Sequence of Serine/threonine-protein kinase pim-2 (Homo sapiens) (Q9P1W9 whole entry, looked up): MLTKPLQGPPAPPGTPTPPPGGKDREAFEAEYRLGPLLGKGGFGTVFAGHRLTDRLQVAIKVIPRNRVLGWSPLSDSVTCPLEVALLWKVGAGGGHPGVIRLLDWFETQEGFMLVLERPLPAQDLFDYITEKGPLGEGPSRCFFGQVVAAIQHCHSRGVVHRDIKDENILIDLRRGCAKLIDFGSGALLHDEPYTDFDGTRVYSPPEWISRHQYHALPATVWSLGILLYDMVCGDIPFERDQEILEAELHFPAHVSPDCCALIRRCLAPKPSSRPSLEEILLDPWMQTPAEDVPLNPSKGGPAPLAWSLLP

Sequence of Protein kinase C beta type (Homo sapiens) (P05771 2-671 limits assumed): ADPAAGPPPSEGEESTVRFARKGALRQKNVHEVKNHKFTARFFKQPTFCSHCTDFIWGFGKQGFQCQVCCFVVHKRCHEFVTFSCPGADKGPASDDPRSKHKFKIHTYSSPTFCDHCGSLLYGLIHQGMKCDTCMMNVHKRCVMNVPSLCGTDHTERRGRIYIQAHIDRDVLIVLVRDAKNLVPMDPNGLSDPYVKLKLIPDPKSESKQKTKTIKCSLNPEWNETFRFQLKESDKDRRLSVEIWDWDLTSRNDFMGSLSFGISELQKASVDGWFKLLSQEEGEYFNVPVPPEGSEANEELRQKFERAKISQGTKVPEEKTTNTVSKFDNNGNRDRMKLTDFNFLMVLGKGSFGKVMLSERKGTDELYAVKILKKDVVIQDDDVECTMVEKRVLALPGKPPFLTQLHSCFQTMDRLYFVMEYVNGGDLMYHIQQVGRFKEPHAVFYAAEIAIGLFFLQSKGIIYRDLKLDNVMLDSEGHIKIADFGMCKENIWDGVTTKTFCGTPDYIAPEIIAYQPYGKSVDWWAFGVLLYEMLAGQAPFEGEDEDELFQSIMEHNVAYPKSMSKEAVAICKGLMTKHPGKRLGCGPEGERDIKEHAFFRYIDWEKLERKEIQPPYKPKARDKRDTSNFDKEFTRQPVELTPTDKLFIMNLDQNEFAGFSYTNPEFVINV

C[C@@]1(C(=O)Nc2ccc(F)nc2)CCCN1c1nc(Nc2cc(C3CC3)n[nH]2)c2cccn2n1
inhibition [1]: -0.76%
inhibition [2]: -8.94%
inhibition [3]: -2.56%
inhibition [4]: 4.61%
inhibition [5]: 7.27%

C[C@]1(O)C[C@@H](c2nc(-c3ccc4ccc(-c5ccccc5)nc4c3)c3c(N)nccn32)C1
inhibition [6]: -6.12%
inhibition [7]: -3.25%
inhibition [8]: 3.09%
inhibition [9]: 1.98%
inhibition [10]: -5.1%
inhibition [11]: -9.03%
